Here are results for three compounds from patent US7534800B2, “7-azaindoles as inhibitors of c-Jun N-terminal kinases for the treatment of neurodegenerative disorders” (Eisai R & D Development Co., Ltd., priority 2002, dated 2009).

For this test, the target named is JNK3 kinase (Homo sapiens, UniProt P53779). The experiment in a line: JNK3 SPA assay (phosphorylation of GST-c-Jun, [γ-33P] ATP). To be noted: 3.33 μM ATP, GST-c-Jun substrate, 30 minutes at room temperature. The class given is biochemical. As for the experimental part:
JNK1, JNK27 JNK3—SPA Assay
A typical assay for testing the activity of compounds to inhibit JNK1, JNK2 and JNK3 enzymes is as follows: • 1. Compound is dissolved in DMSO to a convenient concentration and this is diluted in 10% DMSO to a five times concentrate of the desired starting concentration (frequently 1:100). • 2. 10 μl of 500 mM EDTA is added to alternative wells of the Opti-plate row, which will receive kinase reaction plus DMSO. This creates the negative control. • 3. For the JNK2 and JNK3 assay, compounds are prepared in six 2-fold dilutions with water and each concentration is tested in duplicate. For the JNK1 assay compounds are prepared in four 5-fold dilutions with water which are tested in triplicate. Controls are treated identically. • 4. 20 μl per well of each compound concentration is transferred to an Opti-plate, in duplicate. • 5. 30 μl (JNK2/3 SPA) or 50 μl (JNK1 SPA) of substrate solution (25 mM HEPES pH 7.5, 10 mM magnesium acetate with 3.33 μm ATP (JNK2/3) or 2 μM ATP (JNK1), approximately 7.5 kBq [γ-33P] ATP, GST-c-Jun, in water) is added to each well. • 6. 50 μl (JNK2/3 SPA) or 30 μl (JNK1 SPA) of kinase solution (JNK in 25 mM HEPES pH 7.5, 10 mM Mg Acetate) is added to each well.
• 7. The plate is incubated for 30 minutes at room temperature. • 8. 100 μl of bead/stop solution is added to each well (5 mg/ml glutathione-PVT-SPA beads, 40 µM ATP in PBS). • 9. Plates are sealed and incubated for 30 minutes at room temperature, centrifuged for 10 minutes at 2500 g and counted. • 10. The IC50 values are calculated as the concentration of the compound being tested at which the phosphorylation of c-Jun is decreased to 50% of the control value.

One may read the IC50 as the midpoint of a concentration-inhibition curve. Read a high IC50 as a need for much substance.

Chain of JNK3 kinase (P53779 whole entry): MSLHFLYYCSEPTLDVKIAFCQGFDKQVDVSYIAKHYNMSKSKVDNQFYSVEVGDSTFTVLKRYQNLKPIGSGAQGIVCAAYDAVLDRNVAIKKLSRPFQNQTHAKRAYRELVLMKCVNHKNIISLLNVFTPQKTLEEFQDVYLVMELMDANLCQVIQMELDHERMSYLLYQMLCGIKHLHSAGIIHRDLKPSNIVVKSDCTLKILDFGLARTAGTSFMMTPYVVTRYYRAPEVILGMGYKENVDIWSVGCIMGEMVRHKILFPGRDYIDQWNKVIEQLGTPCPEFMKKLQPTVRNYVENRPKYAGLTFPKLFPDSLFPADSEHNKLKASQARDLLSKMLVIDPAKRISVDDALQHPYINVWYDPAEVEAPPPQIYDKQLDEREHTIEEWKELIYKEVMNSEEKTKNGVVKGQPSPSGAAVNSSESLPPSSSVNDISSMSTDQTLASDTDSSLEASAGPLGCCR

`O=C(NNc1ccccc1)c1c[nH]c2ncc(-c3cccc(F)c3)cc12`: the IC50 was determined as 780 nM. Under `C#CCNC(=O)c1c[nH]c2ncc(-c3cccc(F)c3)cc12` stands 850 nM; under `C#CCNC(=O)c1c[nH]c2ncc(-c3ccc(N(C)C)cc3)cc12`, 520 nM.
